According to US12729377B2, “RNAi agents and compositions for inhibiting expression of angiopoietin-like 3 (ANGPTL3), and methods of use” (Arrowhead Pharmaceuticals, Inc., priority 2017, dated 2026):
In the oligonucleotide strings, read from the 5' end, every base follows the letter of its sugar. An asterisk marks phosphorothioate; unmarked linkages are phosphodiester. Other units and linkages are bracketed, terminal groups are in braces. A string of capitals states the bases alone. {NAG37} = tridentate N-acetyl-galactosamine targeting ligand, structure (NAG37)s; [invAb] = inverted abasic unit; m = 2'-O-methyl; f = 2'-fluoro

Assays:
[1] = test system: ANGPTL3 gene; assay: Example 6: serum total cholesterol in mice; format: in vivo, C57bl/6 mice
Description: To assess the in vivo activity of additional ANGPTL3 RNAi agents that are designed to target position 304 on the ANGPTL3 gene, six- to eight-week-old female C57bl/6 mice were used. Pre-dose serum samples were taken at day −1 after a four hour fast. At day 1, each mouse was given a single subcutaneous administration of 200 μl containing 0.5 mg/kg (mpk) of an ANGPTL3 RNAi agent in D5W (dextrose in 5% water), or control (D5W) with no RNAi agent, according to the dosing groups recited in Table 25.
(§1) Each of the RNAi agents included a modified sequence and an N-acetyl-galactosamine-containing targeting ligand conjugated to the 5′ terminal end of the sense strand. (See Tables 3, 4, and 5 for modified sequences and targeting ligand structures). The injections were performed between the skin and muscle (i.e. subcutaneous injections) into the loose skin over the neck and shoulder area. Three (3) mice in each group were tested (n=3). Serum was collected on days 8, 15, 22, 30, and on day 43 for certain groups (i.e., Groups 1, 2, 5, and 10 only). Mice were fasted for four hours prior to each collection. ANGPTL3 protein levels in serum were measured by ELISA assay (R&D Systems), according to the manufacturer's recommendations. Triglycerides, total cholesterol, high-density lipoprotein (HDL), and low-density lipoprotein (LDL) in serum were measured on a Cobas® Integra 400 (Roche Diagnostics), according to the manufacturer's recommendations.
(§2) The ANGPTL3 protein levels, triglyceride levels, total cholesterol levels, HDL levels, and LDL levels for each animal were normalized. For normalization, the level of ANGPTL3 protein, triglyceride, HDL, and total cholesterol, respectively, for each animal at a time point, was divided by the pre-treatment level of expression in that animal (in this case at day −1) to determine the ratio of expression “normalized to pre-treatment.” Expression at a specific time point was then normalized to the D5W control group by dividing the “normalized to pre-treatment” ratio for an individual animal by the mean “normalized to pretreatment” ratio of all mice in the D5W control group.

[2] = test system: ANGPTL3 gene; assay: Example 9: serum LDL in cynomolgus monkeys; format: in vivo, cynomolgus macaque (Macaca fascicularis); details: 2.0 mg/kg single SC injection day 1, cynos, n=3
Description: Additional ANGPTL3 RNAi agents were evaluated in cynomolgus monkeys. On day 1, cynomolgus macaque (Macaca fascicularis) primates (also referred to herein as “cynos”) were administered a single subcutaneous injection of 0.3 mL/kg (approximately 2-3 mL volume, depending on animal mass) containing 2.0 mg/kg of an ANGPTL3 RNAi agent, which included either AD05488, AD05743, AD05775, or AD05841, each formulated in saline. […] ANGPTL3 RNAi agents AD05488, AD05743, and AD05775 included nucleotide sequences designed to target position 304 of the ANGPTL3 gene. ANGPTL3 RNAi agent AD05841 included nucleotide sequences designed to target position 1035 of the ANGPTL3 gene.
Three (3) cynos in each group were tested (n=3). Blood samples were drawn and serum samples were analyzed on days −14 (predose), −7 (predose), 1 (pre-dose), 8, 15, 22, 29, and 35. Cynos were fasted overnight prior to each collection. ANGPTL3 protein levels in serum were measured by ELISA assay (R&D Systems), according to the manufacturer's recommendations. Triglycerides, total cholesterol, high-density lipoprotein (HDL), and low-density lipoprotein (LDL) in serum were measured on a Cobas® Integra 400 (Roche Diagnostics), according to the manufacturer's recommendations.
The ANGPTL3 protein levels, triglyceride levels, total cholesterol levels, HDL levels, and LDL levels for each animal were normalized. For normalization, the level of ANGPTL3 protein, triglyceride, HDL, and total cholesterol, respectively, for each animal at a time point, was divided by the average pre-treatment level of expression in that animal (in this case at days −14, −7, and 1) to determine the ratio of expression “normalized to pre-treatment.”

[3] = test system: ANGPTL3 protein; assay: Example 11: dose response, serum ANGPTL3 protein by ELISA in mice; format: in vivo, C57bl/6 mice
Description: To assess the dose response of ANGPTL3 RNAi agent AD05488, six- to eight-week-old female C57bl/6 mice were used. Pre-dose serum samples were taken at day −1 after a four hour fast. At day 1, each mouse was given a single subcutaneous administration of 200 μl containing the respective mg/kg dose of an ANGPTL3 RNAi agent in D5W (dextrose in 5% water), or control (D5W) with no RNAi agent, according to the dosing groups recited in Table 53:
as §1, with “The” for “Each of the”, “agent tested (AD05488)” for “agents”, “Four (4)” for “Three (3)”, “(n=4).” for “(n=3).”, “22,” for “22, 30,”, “29.” for “on day 43 for certain groups (i.e., Groups 1, 2, 5, and 10 only).”
as §2

Substance: AD05488: RNAi agent duplex: antisense AM07235-AS, sense AM07234-SS (antisense mU*fA*mC*fUmGfAmUfCmAfAmAfUmAfUmGfUmUfGmAfG*mC; sense {NAG37}*[invAb]*mGmCmUmCmAmAmCmAfUfAfUmUmUmGmAmUmCmAmGmUmA*[invAb])
- Avg Chol (total cholesterol), normalized to pre-treatment and control ([1]; Day 8, 0.5 mg/kg single SC injection on day 1, n=3): 0.782
- Avg Chol (total cholesterol), normalized to pre-treatment and control ([1]; Day 15, 0.5 mg/kg single SC injection on day 1, n=3): 0.768
- Avg Chol (total cholesterol), normalized to pre-treatment and control ([1]; Day 22, 0.5 mg/kg single SC injection on day 1, n=3): 0.801
- Avg Chol (total cholesterol), normalized to pre-treatment and control ([1]; Day 30, 0.5 mg/kg single SC injection on day 1, n=3): 0.961
- Avg Chol (total cholesterol), normalized to pre-treatment and control ([1]; Day 43, 0.5 mg/kg single SC injection on day 1, n=3): 1.037
- Average LDL Normalized to Pre-Treatment ([2]; Day 8): 0.971
- Average LDL Normalized to Pre-Treatment ([2]; Day 15): 0.913
- Average LDL Normalized to Pre-Treatment ([2]; Day 22): 0.949
- Average LDL Normalized to Pre-Treatment ([2]; Day 29): 0.853
- Average LDL Normalized to Pre-Treatment ([2]; Day 35): 0.845
- Avg ANGPTL3 Protein Normalized to Pre-Treatment and Control ([3]; 0.05 mg/kg single sc day 1, Day 8): 0.788
- Avg ANGPTL3 Protein Normalized to Pre-Treatment and Control ([3]; 0.05 mg/kg single sc day 1, Day 15): 0.929
- Avg ANGPTL3 Protein Normalized to Pre-Treatment and Control ([3]; 0.05 mg/kg single sc day 1, Day 22): 1.106
- Avg ANGPTL3 Protein Normalized to Pre-Treatment and Control ([3]; 0.05 mg/kg single sc day 1, Day 29): 0.990
- Avg ANGPTL3 Protein Normalized to Pre-Treatment and Control ([3]; 0.1 mg/kg single sc day 1, Day 8): 0.511
- Avg ANGPTL3 Protein Normalized to Pre-Treatment and Control ([3]; 0.1 mg/kg single sc day 1, Day 15): 0.757
- Avg ANGPTL3 Protein Normalized to Pre-Treatment and Control ([3]; 0.1 mg/kg single sc day 1, Day 22): 0.720
- Avg ANGPTL3 Protein Normalized to Pre-Treatment and Control ([3]; 0.1 mg/kg single sc day 1, Day 29): 0.734
- Avg ANGPTL3 Protein Normalized to Pre-Treatment and Control ([3]; 0.5 mg/kg single sc day 1, Day 8): 0.207
- Avg ANGPTL3 Protein Normalized to Pre-Treatment and Control ([3]; 0.5 mg/kg single sc day 1, Day 15): 0.261
- Avg ANGPTL3 Protein Normalized to Pre-Treatment and Control ([3]; 0.5 mg/kg single sc day 1, Day 22): 0.310
- Avg ANGPTL3 Protein Normalized to Pre-Treatment and Control ([3]; 0.5 mg/kg single sc day 1, Day 29): 0.349
- Avg ANGPTL3 Protein Normalized to Pre-Treatment and Control ([3]; 1.0 mg/kg single sc day 1, Day 8): 0.116
- Avg ANGPTL3 Protein Normalized to Pre-Treatment and Control ([3]; 1.0 mg/kg single sc day 1, Day 15): 0.141
- Avg ANGPTL3 Protein Normalized to Pre-Treatment and Control ([3]; 1.0 mg/kg single sc day 1, Day 22): 0.171
- Avg ANGPTL3 Protein Normalized to Pre-Treatment and Control ([3]; 1.0 mg/kg single sc day 1, Day 29): 0.199
- Avg ANGPTL3 Protein Normalized to Pre-Treatment and Control ([3]; 2.5 mg/kg single sc day 1, Day 8): 0.064
- Avg ANGPTL3 Protein Normalized to Pre-Treatment and Control ([3]; 2.5 mg/kg single sc day 1, Day 15): 0.047
- Avg ANGPTL3 Protein Normalized to Pre-Treatment and Control ([3]; 2.5 mg/kg single sc day 1, Day 22): 0.056
- Avg ANGPTL3 Protein Normalized to Pre-Treatment and Control ([3]; 2.5 mg/kg single sc day 1, Day 29): 0.063
- Avg ANGPTL3 Protein Normalized to Pre-Treatment and Control ([3]; 5.0 mg/kg single sc day 1, Day 8): 0.018
- Avg ANGPTL3 Protein Normalized to Pre-Treatment and Control ([3]; 5.0 mg/kg single sc day 1, Day 15): 0.019
- Avg ANGPTL3 Protein Normalized to Pre-Treatment and Control ([3]; 5.0 mg/kg single sc day 1, Day 22): 0.029
- Avg ANGPTL3 Protein Normalized to Pre-Treatment and Control ([3]; 5.0 mg/kg single sc day 1, Day 29): 0.031
- reduction in ANGPTL3 protein ([3]; dose response, single subcutaneous dose, C57bl/6 mice): reduction
